The target of the experiment is T1, KRAS G12C 1-169, his-tagged protein, GDP-loaded (Homo sapiens, UniProt P01116, G12C).
T1 construct: KRAS G12C 1-169, his-tagged protein, GDP-loaded
The experiment is described as follows: Biochemical assay: covalent modification of KRAS G12C measured by mass spectrometry (RapidFire/TOF or Q-Exactive). The settings on record: covalent binding to KRAS G12C. In short, it runs like this: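 GDP-loaded his-tagged KRAS G12C 1-169 at 2 μM in 20 mM Hepes, 150 mM NaCl, 1 mM MgCl2 incubated at room temperature with compound (10, 30 or 100 μM final, 2% DMSO) for 30 min, 2 h or 24 h, then quenched with formic acid. Intact-protein LC-MS (RapidFire/TOF or Q-Exactive) with deconvolution quantified modified versus unmodified protein.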

For 24 compounds, Binding % results are on record in patent US10829458B2 (Araxes Pharma LLC, priority 2015, dated 2020).

`C=CC(=O)N1C[C@@H](C)N(c2ncnc3c(F)c(-c4cc(O)cc5ccccc45)c(Cl)cc23)[C@@H](C)C1` [III-41, 1-((3S,5R)-4-(6-chloro-8-fluoro-7-(3-hydroxy-naphthalen-1-yl)quinazolin-4-yl)-3,5-dimethyl-piperazin-1-yl)prop-2-en-1-one]: the Binding % entry (compounds of structure (III)) was “++ (++ indicates activity from 50% to 90%)”.

Turning to `C=CC(=O)N1CCN(c2nc(NC3CCOC3)nc3c(F)c(-c4cc(O)cc5ccccc45)c(Cl)cc23)CC1` (stereo not drawn) [Example I-71, 1-(4-(6-chloro-8-fluoro-7-(3-hydroxy-naphthalen-1-yl)-2-(tetrahydro-furan-3-ylamino)quinazolin-4-yl)piperazin-1-yl)prop-2-en-1-one], the Binding % result (compounds of structure (I)) is on record as “+++ (+++ indicates binding activity greater than 90%)”. Turning to `C=CC(=O)N1CCN(c2nc(N3CC(N4CCN(C5CC5)CC4)C3)nc3c(F)c(-c4c(O)cccc4F)c(Cl)cc23)CC1` [Example I-166, 1-(4-(6-chloro-2-(3-(4-cyclopropyl-piperazin-1-yl)azetidin-1-yl)-8-fluoro-7-(2-fluoro-6-hydroxyphenyl)quinazolin-4-yl)piperazin-1-yl) prop-2-en-1-one], the Binding % result (compounds of structure (I)) is recorded as “++ (++ indicates binding activity from 50 to 90%)”. Same read-out and setting: the value for `C=CC(=O)N1CCN(c2nc(OC3CCN(C4CC4)CC3)nc3c(F)c(-c4c(O)cccc4F)c(Cl)cc23)CC1` [Example I-94, 1-(4-(6-chloro-2-(1-cyclopropyl-piperidin-4-yloxy)-8-fluoro-7-(2-fluoro-6-hydroxyphenyl)quinazolin-4-yl)piperazin-1-yl)prop-2-en-1-one] was “+++ (+++ indicates binding activity greater than 90%)”; that for `C=CC(=O)N1CCN(c2nc(OCc3cccc(C)n3)nc3c(F)c(-c4c(O)cccc4F)c(Cl)cc23)CC1` [Example I-99, 1-(4-(6-chloro-8-fluoro-7-(2-fluoro-6-hydroxyphenyl)-2-((6-methyl-pyridin-2-yl)methoxy)quinazolin-4-yl)piperazin-1-yl)prop-2-en-1-one] was “+++ (+++ indicates binding activity greater than 90%)”; that for `C=CC(=O)N1CCN(c2nc(OCCC3CCN(C4CC4)CC3)nc3c(F)c(-c4c(O)cccc4F)c(Cl)cc23)CC1` [Example I-192, 1-(4-(6-chloro-2-(2-(1-cyclopropyl-piperidin-4-yl)ethoxy)-8-fluoro-7-(2-fluoro-6-hydroxyphenyl)quinazolin-4-yl)piperazin-1-yl) prop-2-en-1-one] was “+++ (+++ indicates binding activity greater than 90%)”. Same read-out and setting: the result for `C=CC(=O)N1CCN(c2nc(OCCN3CCOCC3)nc3c(F)c(-c4ccccc4C(C)C)c(Cl)cc23)CC1` [Example I-37, 1-(4-(6-chloro-8-fluoro-7-(2-isopropylphenyl)-2-(2-morpholino-ethoxy)quinazolin-4-yl)piperazin-1-yl)prop-2-en-1-one] reads “+++ (+++ indicates binding activity greater than 90%)”. Same read-out and setting: the value for `C=CC(=O)N1CCN(c2nc(NC(=O)c3ccnc(C)c3)nc3c(F)c(-c4c(O)cccc4F)c(Cl)cc23)CC1` [Example I-181, N-(4-(4-acryloyl-piperazin-1-yl)-6-chloro-8-fluoro-7-(2-fluoro-6-hydroxyphenyl)quinazolin-2-yl)-2-methyliso-nicotinamide] was “+ (+ indicates binding activity up to 50%)”; that for `C=CC(=O)N1CCN(c2nc(OCCNC)nc3c(F)c(-c4c(O)cccc4F)c(Cl)cc23)CC1` [Example I-86, 1-(4-(6-chloro-8-fluoro-7-(2-fluoro-6-hydroxyphenyl)-2-(2-(methyl-amino)ethoxy)quinazolin-4-yl)piperazin-1-yl)prop-2-en-1-one] was “+++ (+++ indicates binding activity greater than 90%)”. Consider `C=CC(=O)N1CCN(c2nc(NC3CCN(CC#N)CC3)nc3c(F)c(-c4c(C)ccc5[nH]ncc45)c(Cl)cc23)CC1` [Example I-165, 2-(4-((4-(4-acryloyl-piperazin-1-yl)-6-chloro-8-fluoro-7-(5-methyl-1H-indazol-4-yl)quinazolin-2-yl)amino)piperidin-1-yl) acetonitrile], for which the Binding % entry (compounds of structure (I)) is “++ (++ indicates binding activity from 50 to 90%)”. The same measure, in the same setting: the value for `C=CC(=O)N1CCN(c2nc(NC3CCN(C4CCC4)CC3)nc3c(F)c(-c4c(C)ccc5[nH]ncc45)c(Cl)cc23)CC1` [Example I-132, 1-(4-(6-chloro-2-(1-cyclobutyl-piperidin-4-ylamino)-8-fluoro-7-(5-methyl-1H-indazol-4-yl)quinazolin-4-yl)piperazin-1-yl) prop-2-en-1-one] was “+++ (+++ indicates binding activity greater than 90%)”. Take `C=CC(=O)N1CCN(c2ncnc3c(F)c(-c4c(O)cccc4F)c(Cl)cc23)CC1C(F)F` (stereo not drawn) [III-19, 1-(4-(6-chloro-8-fluoro-7-(2-fluoro-6-hydroxy-phenyl)quinazolin-4-yl)-2-(difluoro-methyl)piperazin-1-yl)prop-2-en-1-one]: for the setting “compounds of structure (III)”, the Binding % entry is “+++ (+++ indicates binding activity greater than 90%)”. `C=CC(=O)N1C[C@@H](C)N(c2ncnc3c(F)c(-c4c(O)cccc4F)c(Cl)cc23)[C@@H](C)C1` [III-28, 1-((3R,5S)-4-(6-chloro-8-fluoro-7-(2-fluoro-6-hydroxy-phenyl)quinazolin-4-yl)-3,5-dimethyl-piperazin-1-yl)prop-2-en-1-one]: the Binding % result (compounds of structure (III)) is “+++ (+++ indicates binding activity greater than 90%)”. Consider `C=CC(=O)N1CCN(c2nc(CP(C)(C)=O)nc3c(F)c(-c4c(O)cccc4F)c(Cl)cc23)CC1` [Example I-209, 1-(4-(6-chloro-2-((dimethyl-phosphoryl)methyl)-8-fluoro-7-(2-fluoro-6-hydroxyphenyl)quinazolin-4-yl)piperazin-1-yl) prop-2-en-1-one], for which the Binding % entry (compounds of structure (I)) was “++ (++ indicates binding activity from 50 to 90%)”.

For the compound `C=CC(=O)N1CCN(c2nc(OCCc3ccc(F)cn3)nc3c(F)c(-c4c(O)cccc4F)c(Cl)cc23)CC1` [Example I-100, 1-(4-(6-chloro-8-fluoro-7-(2-fluoro-6-hydroxyphenyl)-2-(2-(5-fluoro-pyridin-2-yl)ethoxy)quinazolin-4-yl)piperazin-1-yl) prop-2-en-1-one], the Binding % result (compounds of structure (I)) is given as “+++ (+++ indicates binding activity greater than 90%)”. Same read-out and setting: the result for `C=CC(=O)N1CCN(c2nc(N3CC(C)(N(C)C)C3)nc3c(F)c(-c4c(O)cccc4F)c(Cl)cc23)CC1` [Example I-149, 1-(4-(6-chloro-2-(3-(dimethyl-amino)-3-methyl-azetidin-1-yl)-8-fluoro-7-(2-fluoro-6-hydroxyphenyl)quinazolin-4-yl)piperazin-1-yl) prop-2-en-1-one] reads “+++ (+++ indicates binding activity greater than 90%)”. Consider `C=CC(=O)N1CCN(c2nc(NC3CCN(CC4CC4)CC3)nc3c(F)c(-c4c(C)ccc5[nH]ncc45)c(Cl)cc23)CC1` [Example I-128, 1-(4-(6-chloro-2-(1-(cyclo-propylmethyl)piperidin-4-ylamino)-8-fluoro-7-(5-methyl-1H-indazol-4-yl)quinazolin-4-yl)piperazin-1-yl) prop-2-en-1-one], for which the Binding % entry (compounds of structure (I)) was “+++ (+++ indicates binding activity greater than 90%)”. On the same count and under the same terms, the value for `C=CC(=O)N1CCN(c2nc(OCC(F)(F)c3ccccn3)nc3c(F)c(-c4c(O)cccc4F)c(Cl)cc23)CC1` [Example I-124, 1-(4-(6-chloro-2-(2,2-difluoro-2-(pyridin-2-yl)ethoxy)-8-fluoro-7-(2-fluoro-6-hydroxyphenyl)quinazolin-4-yl)piperazin-1-yl) prop-2-en-1-one] was “+++ (+++ indicates binding activity greater than 90%)”; that for `C=CC(=O)N1CCN(c2nc(OC3COC3)nc3c(F)c(-c4c(O)cccc4F)c(Cl)cc23)CC1` [Example I-19, 1-(4-(6-chloro-8-fluoro-7-(2-fluoro-6-hydroxyphenyl)-2-(oxetan-3-yloxy)quinazolin-4-yl)piperazin-1-yl)prop-2-en-1-one] was “++ (++ indicates binding activity from 50 to 90%)”. Regarding `C=CC(=O)N1CCN(c2ncnc3c(F)c(-c4c(O)cccc4F)c(Cl)cc23)CC1(C)C` [III-7, 1-(4-(6-chloro-8-fluoro-7-(2-fluoro-6-hydroxy-phenyl)quinazolin-4-yl)-2,2-dimethyl-piperazin-1-yl)prop-2-en-1-one], for the setting “compounds of structure (III)”, the Binding % entry was “+ (+ indicates binding activity up to 50%)”. Regarding `Cc1ccc2[nH]ncc2c1-c1c(Cl)cc2c(N3CCN(C(=O)/C=C/CN(C)C)CC3)nc(OCCN3CCCC3=O)nc2c1F` [Example I-2, (E)-1-(2-(6-chloro-4-(4-(4-(dimethylamino)but-2-enoyl)piperazin-1-yl)-8-fluoro-7-(5-methyl-1H-indazol-4-yl)quinazolin-2-yloxy)ethyl) pyrrolidin-2-one], under “compounds of structure (I)”, the Binding % result was “+ (+ indicates binding activity up to 50%)”. For the compound `C=CC(=O)N1CCN(c2ncnc3c(F)c(-c4c(O)cccc4F)c(Cl)cc23)CC1CO` (stereo not drawn) [III-8, 1-(4-(6-chloro-8-fluoro-7-(2-fluoro-6-hydroxy-phenyl)quinazolin-4-yl)-2-(hydroxy-methyl)piperazin-1-yl)prop-2-en-1-one], the Binding % result (compounds of structure (III)) is “++ (++ indicates activity from 50% to 90%)”. As to `C=CC(=O)N1CCN(c2nc(NCCc3ncccn3)nc3c(F)c(-c4c(C)ccc5[nH]ncc45)c(Cl)cc23)CC1` [Example I-169, 1-(4-(6-chloro-8-fluoro-7-(5-methyl-1H-indazol-4-yl)-2-((2-(pyrimidin-2-yl)ethyl)amino)quinazolin-4-yl)piperazin-1-yl) prop-2-en-1-one], the Binding % result (compounds of structure (I)) was “++ (++ indicates binding activity from 50 to 90%)”.

On to `C=CC(=O)N1CCC2(C1)CN(c1ncnc3c(F)c(-c4c(O)cccc4F)c(Cl)cc13)C2` [II-8, 1-(2-(6-chloro-8-fluoro-7-(2-fluoro-6-hydroxyphenyl)quinazolin-4-yl)-2,6-diazaspiro[3.4]octan-6-yl)prop-2-en-1-one], for which the Binding % result (compounds of structure (II)) is given as “+ (+ indicates binding activity up to 50%)”.
